From patent US8415469B2, “Compounds and methods for kinase modulation, and indications therefor” (Plexxikon Inc., priority 2005, dated 2013)
Each block holds one compound with its values, some of them ahead of it.

Experiments:
Type in all cases: biochemical
Zap70 = target: T1, Zap70 (Homo sapiens, UniProt P43403); experiment: AlphaScreen kinase assay, Zap70; conditions: read-out: IC50, activity toward kinase Zap70
T1 construct: P1868.pFastBac1 ZAP70 D327-G606 HIS, WT; His7 (HHHHHHH) (C); made in house
T1 sequence (P43403 with tags, fused parts or gaps): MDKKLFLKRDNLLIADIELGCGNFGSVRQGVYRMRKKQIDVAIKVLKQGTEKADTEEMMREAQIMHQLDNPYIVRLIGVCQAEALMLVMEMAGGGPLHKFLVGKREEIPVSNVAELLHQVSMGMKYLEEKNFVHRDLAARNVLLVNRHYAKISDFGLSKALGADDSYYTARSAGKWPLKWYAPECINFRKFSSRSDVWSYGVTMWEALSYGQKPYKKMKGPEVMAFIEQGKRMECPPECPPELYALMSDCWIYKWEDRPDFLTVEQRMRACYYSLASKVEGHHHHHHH
Description: AlphaScreen assay was used to screen additional kinases. The assay is similarly dependent on the phosphorylation of a peptide substrate. In this assay, an antibody that recognizes phosphorylated substrate is bound to an acceptor bead. The peptide substrate is attached to biotin, which binds to a donor head that contains streptavidin. Thus phosphorylated substrate is bound by antibody and streptavidin, bringing the donor and acceptor heads into close proximity when kinase is not inhibited. The donor produces singlet oxygen which results in emission from the acceptor when they are in close proximity. Conversely, when kinase is inhibited, the donor and acceptor beads are not associated and the emission from the acceptor is reduced.
AlphaScreen assays were done using compounds dissolved in DMSO to a concentration of 20 mM. The compounds were diluted accordingly to the desired final concentrations in each sample well, using 1:3 serial dilution for a total of 8 concentration points.

Stk6 = target: T2, Stk6 (Homo sapiens, UniProt O14965); experiment: Z'-Lyte FRET kinase assay (Invitrogen), Stk6; conditions: read-out: IC50, activity toward kinase Stk6
T2 construct: purchased Invitrogen (Carlsbad, Calif.), screening service
T2 sequence (O14965 1-403): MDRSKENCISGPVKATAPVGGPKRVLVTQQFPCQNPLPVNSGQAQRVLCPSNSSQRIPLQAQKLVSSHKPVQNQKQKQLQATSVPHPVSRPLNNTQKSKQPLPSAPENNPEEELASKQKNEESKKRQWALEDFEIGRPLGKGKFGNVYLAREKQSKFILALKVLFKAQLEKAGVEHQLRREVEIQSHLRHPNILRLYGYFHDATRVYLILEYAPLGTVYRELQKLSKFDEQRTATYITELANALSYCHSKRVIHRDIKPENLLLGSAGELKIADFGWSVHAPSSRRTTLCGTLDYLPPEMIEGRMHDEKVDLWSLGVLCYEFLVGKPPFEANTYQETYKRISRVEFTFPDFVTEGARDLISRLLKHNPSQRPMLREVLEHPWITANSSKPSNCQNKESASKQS

MAP4K4 = MAP4K4 (Homo sapiens, UniProt O95819); experiment: AlphaScreen kinase assay, MAP4K4; conditions: read-out: IC50, activity toward kinase MAP4K4
FGFR1 = target: T3, FGFR1 (Homo sapiens, UniProt P11362, C488A/C584S); experiment: AlphaScreen kinase assay, FGFR1; conditions: read-out: IC50, activity toward kinase FGFR
T3 construct: P1351.pET N6 BI-PTP FGFR A458-E765-X C488A, C584S; made in house; host or cells: E. coli (PTP1B co-expressed)

B-Raf = target: T4, B-Raf (Homo sapiens, UniProt P15056); experiment: AlphaScreen kinase assay, B-Raf; conditions: read-out: IC50, activity toward kinase B-Raf
T4 construct: purchased Upstate Biotechnology

Fak = target: T5, Fak (Homo sapiens, UniProt Q05397); experiment: AlphaScreen kinase assay, Fak; conditions: read-out: IC50, activity toward kinase Fak
T5 construct: P1358.pFastBacHtb FAK S411-Q686-X; His6 with pFastBacHTb leader (TEV site) (N); made in house; host or cells: Sf9 (baculovirus)

Yes = target: T6, Yes (Homo sapiens, UniProt P07947); experiment: Z'-Lyte FRET kinase assay (Invitrogen), Yes; conditions: read-out: IC50, activity toward kinase Yes
T6 construct: purchased Invitrogen (Carlsbad, Calif.), screening service
Description: The effect of potential modulators of kinase activity can be measured in a variety of different assays known in the art. For example, direct radiometric, indirect FRET or AlphaScreen assays may be used to assess the level of phosphorylation of a substrate in the presence of test compounds in order to determine the inhibitory affect of the compound on the kinase. Invitrogen (Carlsbad, Calif.) uses a FRET based assay for Btk, EGFR, EphB2, Flt3, lrak4, Kdr, MAP2K1, MAPKAPK2, PDGFRB, PKC theta, Stk6 and Yes. For these assays, compounds of the invention were screened by Invitrogen using Z′-Lyte™ kinase assay.
Briefly, the Invitrogen kinase assay involves use of a specific peptide substrate optimized for each kinase, containing a fluorophore at each end that make up the FRET pair. The peptide sensitivity to proteolytic cleavage depends on phosphorylation of the peptide. Non-phosphorylated peptide is cleaved by a protease while peptide phosphorylated by the kinase is not cleaved. Cleavage of the peptide disrupts the FRET between the donor (coumarin) and acceptor (fluorescein) fluorophores, resulting in an increase in the ratio of donor emission to acceptor emission. The emission ratio of coumarin to fluorescein is used to assess the reaction progress. The extent of phosphorylation is determined from the emission ratio, which is low when the kinase is active (phosphorylated peptide is not cleaved, FRET pair connected) or higher for inhibited kinase (non-phosphorylated peptide is cleaved, FRET pair separated). Thus, the assay involves a kinase reaction in the presence of varying concentrations of a given compound, a development reaction with site specific protease, and detection of the fluorescent emission ratio of coumarin and fluorscein. […] Reaction conditions for each kinase are determined to provide optimal reaction times, incubation temperature, kinase and ATP concentrations. Test samples are made up in 1× kinase buffer (50 mM HEPES pH 7.5, 50 mM MgCl2, 5 mM EGTA, 0.05% BRIJ-35) and compound at desired concentration prepared in DMSO such that the final DMSO is 1%. […] Typically, assay plates are prepared to 10 μl final volume per sample, adding 2.5 μl of compound at 4× the desired concentration in 4% DMSO (serial dilution of compound provides concentration curve), 5 μl of the desired kinase mixed with Z′-LYTE™ peptide substrate (2× in 2× kinase buffer, final peptide at 2 μM), and 2.5 μl of 4×ATP solution. All kinase except for MAP2K1 were at 10 μM ATP in the kinase reaction, while MAP2K1 was at 100 μM. Samples are mixed and the kinase reaction is incubated 1 hour at room temperature, after which 5 μl of development solution is added and mixed. After incubation for another 1 hour at room temperature, 5 μl of stop reagent is added to each sample and mixed. The fluorescence signals are measured to determine the emission ratio.

Ret = target: T7, Ret (Homo sapiens, UniProt P07949); experiment: AlphaScreen kinase assay, Ret; conditions: read-out: IC50, activity toward kinase Ret
T7 construct: P1378.pET-SF BI-PTP RET H661-R1012 HIS; made in house
T7 sequence (P07949 with tags, fused parts or gaps): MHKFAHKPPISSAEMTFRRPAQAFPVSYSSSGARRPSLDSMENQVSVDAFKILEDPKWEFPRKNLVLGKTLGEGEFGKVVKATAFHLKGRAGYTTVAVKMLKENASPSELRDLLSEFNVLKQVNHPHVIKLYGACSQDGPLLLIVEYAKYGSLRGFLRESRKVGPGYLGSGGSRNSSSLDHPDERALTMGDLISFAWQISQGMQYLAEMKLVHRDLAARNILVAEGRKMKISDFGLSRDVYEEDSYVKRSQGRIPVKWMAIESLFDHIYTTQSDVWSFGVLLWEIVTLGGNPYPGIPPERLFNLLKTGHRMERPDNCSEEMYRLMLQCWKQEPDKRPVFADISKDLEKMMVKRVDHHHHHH

Kit = target: T8, Kit (Homo sapiens, UniProt P10721); experiment: AlphaScreen kinase assay, Kit; conditions: read-out: IC50, activity toward kinase Kit
T8 construct: P1332.N6 BI PTP KIT M552-K948-X COD; His6 (N); made in house; host or cells: E. coli (PTP1B co-expressed)

Flt1 = target: T9, Flt1 (Homo sapiens, UniProt P17948); experiment: AlphaScreen kinase assay, Flt1; conditions: read-out: IC50, activity toward kinase Flt1
T9 construct: P1826.pETN6 BI-PTP FLT1 M799-D1165-X WT; His6 (N); made in house; host or cells: E. coli (PTP1B co-expressed)
T9 sequence (P17948 with tags, fused parts or gaps): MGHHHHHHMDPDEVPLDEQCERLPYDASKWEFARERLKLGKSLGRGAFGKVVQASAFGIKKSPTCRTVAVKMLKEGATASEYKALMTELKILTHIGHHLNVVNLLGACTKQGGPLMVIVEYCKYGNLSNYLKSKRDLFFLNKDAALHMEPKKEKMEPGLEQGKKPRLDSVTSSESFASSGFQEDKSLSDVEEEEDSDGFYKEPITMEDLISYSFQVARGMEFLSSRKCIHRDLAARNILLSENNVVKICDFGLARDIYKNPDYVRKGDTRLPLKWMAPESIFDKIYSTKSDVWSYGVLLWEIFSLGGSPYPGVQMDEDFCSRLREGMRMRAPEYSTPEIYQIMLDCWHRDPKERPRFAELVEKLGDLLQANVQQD

Fms = target: T10, Fms (Homo sapiens, UniProt P07333); experiment: AlphaScreen kinase assay, Fms; conditions: read-out: IC50, activity toward kinase Fms
T10 construct: purchased Upstate Biotechnology

B-Raf V600E = target: T11, B-Raf V600E (Homo sapiens, UniProt P15056, V600E); experiment: AlphaScreen kinase assay, B-Raf V600E; conditions: read-out: IC50, activity toward kinase B-Raf V600E
T11 construct: P4254. pFastBacBD-CDC37 BRAF D437-K722-X, V600E; His6 with pFastBac HT leader (TEV site) (N); made in house; host or cells: Sf9 (baculovirus; chaperone CDC37 co-expressed)
T11 sequence (P15056 with tags, fused parts or gaps V600E): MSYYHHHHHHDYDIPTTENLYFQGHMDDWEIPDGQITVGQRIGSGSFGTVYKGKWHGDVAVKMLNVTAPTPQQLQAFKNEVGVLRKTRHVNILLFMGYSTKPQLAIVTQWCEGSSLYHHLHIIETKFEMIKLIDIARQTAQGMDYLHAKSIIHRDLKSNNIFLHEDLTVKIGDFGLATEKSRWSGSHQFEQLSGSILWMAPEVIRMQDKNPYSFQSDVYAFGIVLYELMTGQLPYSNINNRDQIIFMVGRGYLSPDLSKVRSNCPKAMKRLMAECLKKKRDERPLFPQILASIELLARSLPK

T8 sequence (P10721 with tags, fused parts or gaps): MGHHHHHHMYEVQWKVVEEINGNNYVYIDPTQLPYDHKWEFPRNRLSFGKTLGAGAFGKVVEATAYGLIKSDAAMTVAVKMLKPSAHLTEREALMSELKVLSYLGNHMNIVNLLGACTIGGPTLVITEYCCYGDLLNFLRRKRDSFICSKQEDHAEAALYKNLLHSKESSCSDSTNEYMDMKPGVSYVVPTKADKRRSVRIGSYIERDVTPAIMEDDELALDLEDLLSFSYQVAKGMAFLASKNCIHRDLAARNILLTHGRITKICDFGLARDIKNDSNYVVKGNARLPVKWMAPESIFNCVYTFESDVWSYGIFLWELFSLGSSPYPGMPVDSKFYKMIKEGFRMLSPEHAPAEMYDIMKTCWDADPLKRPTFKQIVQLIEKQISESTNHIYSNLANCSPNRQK
Sequence of MAP4K4 (O95819 whole entry): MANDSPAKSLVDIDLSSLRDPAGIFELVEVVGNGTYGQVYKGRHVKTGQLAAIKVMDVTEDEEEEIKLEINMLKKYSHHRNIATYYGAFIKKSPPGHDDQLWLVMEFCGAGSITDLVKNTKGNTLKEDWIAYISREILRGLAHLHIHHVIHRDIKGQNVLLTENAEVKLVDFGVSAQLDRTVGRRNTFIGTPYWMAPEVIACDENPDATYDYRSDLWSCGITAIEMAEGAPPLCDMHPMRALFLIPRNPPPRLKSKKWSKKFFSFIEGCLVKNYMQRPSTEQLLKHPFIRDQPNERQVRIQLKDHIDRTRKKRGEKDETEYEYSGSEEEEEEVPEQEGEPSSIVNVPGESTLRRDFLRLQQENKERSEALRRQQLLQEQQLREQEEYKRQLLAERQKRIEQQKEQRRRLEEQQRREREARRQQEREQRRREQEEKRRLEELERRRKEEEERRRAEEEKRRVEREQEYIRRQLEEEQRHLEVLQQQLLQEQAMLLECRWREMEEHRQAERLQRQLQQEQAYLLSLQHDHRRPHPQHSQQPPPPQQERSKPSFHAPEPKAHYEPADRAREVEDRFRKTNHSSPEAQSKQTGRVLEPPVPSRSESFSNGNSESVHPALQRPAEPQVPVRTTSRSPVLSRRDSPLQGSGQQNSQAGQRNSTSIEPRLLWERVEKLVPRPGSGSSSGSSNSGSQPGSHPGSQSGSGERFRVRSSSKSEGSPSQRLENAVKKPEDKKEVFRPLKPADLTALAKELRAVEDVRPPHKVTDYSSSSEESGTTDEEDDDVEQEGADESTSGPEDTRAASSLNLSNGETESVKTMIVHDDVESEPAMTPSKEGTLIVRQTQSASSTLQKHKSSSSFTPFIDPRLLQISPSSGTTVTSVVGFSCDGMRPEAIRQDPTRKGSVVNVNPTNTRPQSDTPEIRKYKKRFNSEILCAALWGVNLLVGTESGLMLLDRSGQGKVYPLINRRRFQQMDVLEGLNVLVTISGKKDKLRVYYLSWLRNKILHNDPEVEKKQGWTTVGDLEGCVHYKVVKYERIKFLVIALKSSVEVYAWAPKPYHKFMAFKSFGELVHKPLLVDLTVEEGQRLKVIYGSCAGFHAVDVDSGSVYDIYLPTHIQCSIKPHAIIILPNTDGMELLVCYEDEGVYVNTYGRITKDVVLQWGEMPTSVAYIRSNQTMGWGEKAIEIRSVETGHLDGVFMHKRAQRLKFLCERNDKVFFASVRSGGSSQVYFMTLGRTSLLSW
T3 sequence (P11362 458-765 C488A/C584S): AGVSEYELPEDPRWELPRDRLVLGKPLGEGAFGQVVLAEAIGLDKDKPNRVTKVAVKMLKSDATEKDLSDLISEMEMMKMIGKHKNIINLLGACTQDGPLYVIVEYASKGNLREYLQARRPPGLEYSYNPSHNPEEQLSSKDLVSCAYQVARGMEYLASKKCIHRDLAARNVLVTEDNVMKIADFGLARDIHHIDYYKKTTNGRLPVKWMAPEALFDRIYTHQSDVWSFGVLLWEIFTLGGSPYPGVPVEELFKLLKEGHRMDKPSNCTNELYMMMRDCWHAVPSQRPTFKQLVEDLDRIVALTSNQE
T5 sequence (Q05397 411-686): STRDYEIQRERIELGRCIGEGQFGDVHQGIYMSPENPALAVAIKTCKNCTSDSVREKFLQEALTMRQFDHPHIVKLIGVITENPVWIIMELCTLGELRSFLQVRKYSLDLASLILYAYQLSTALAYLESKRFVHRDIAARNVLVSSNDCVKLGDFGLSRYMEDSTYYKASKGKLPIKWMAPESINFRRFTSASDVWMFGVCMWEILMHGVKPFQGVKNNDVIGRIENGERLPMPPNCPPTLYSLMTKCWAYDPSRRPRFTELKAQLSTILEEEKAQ
T10 sequence (P07333 20-972): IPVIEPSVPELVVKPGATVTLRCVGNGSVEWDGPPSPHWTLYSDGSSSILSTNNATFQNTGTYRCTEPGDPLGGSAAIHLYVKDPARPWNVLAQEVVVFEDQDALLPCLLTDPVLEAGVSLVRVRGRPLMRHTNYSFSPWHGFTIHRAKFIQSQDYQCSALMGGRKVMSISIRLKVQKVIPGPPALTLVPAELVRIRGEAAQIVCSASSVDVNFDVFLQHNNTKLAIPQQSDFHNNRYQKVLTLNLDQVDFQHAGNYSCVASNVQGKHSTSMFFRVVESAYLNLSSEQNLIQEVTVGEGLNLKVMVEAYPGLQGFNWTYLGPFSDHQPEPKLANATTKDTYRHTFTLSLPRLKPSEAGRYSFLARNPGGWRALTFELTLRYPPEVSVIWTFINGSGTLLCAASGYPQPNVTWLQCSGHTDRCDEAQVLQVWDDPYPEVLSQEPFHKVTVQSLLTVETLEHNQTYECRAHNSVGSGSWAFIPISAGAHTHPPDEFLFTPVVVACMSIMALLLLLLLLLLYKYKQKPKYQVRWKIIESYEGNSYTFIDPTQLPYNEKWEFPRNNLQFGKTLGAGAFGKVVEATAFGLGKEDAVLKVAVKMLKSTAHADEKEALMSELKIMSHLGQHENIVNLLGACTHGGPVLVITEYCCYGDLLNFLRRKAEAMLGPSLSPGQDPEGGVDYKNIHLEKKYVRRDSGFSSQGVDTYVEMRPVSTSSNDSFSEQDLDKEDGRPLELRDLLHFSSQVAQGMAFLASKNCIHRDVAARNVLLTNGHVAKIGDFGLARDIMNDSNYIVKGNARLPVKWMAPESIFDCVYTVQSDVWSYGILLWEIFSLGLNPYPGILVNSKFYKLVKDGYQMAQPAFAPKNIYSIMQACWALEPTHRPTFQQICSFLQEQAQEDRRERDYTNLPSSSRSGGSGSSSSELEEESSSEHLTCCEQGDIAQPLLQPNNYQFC
T6 sequence (P07947 whole entry): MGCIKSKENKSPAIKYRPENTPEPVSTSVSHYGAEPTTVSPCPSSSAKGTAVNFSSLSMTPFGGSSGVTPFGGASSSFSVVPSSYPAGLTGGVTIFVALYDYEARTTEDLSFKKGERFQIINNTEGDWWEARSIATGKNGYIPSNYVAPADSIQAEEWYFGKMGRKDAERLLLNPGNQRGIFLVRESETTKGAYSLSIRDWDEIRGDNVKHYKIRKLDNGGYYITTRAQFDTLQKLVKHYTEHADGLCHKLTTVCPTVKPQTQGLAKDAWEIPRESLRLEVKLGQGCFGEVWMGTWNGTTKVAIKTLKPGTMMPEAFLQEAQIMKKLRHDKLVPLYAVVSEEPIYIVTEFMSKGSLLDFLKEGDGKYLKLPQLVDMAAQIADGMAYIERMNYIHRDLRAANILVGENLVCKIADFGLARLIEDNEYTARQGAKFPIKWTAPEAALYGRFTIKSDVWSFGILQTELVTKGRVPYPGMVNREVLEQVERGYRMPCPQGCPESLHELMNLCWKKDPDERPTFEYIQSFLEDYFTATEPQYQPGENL
T4 sequence (P15056 whole entry): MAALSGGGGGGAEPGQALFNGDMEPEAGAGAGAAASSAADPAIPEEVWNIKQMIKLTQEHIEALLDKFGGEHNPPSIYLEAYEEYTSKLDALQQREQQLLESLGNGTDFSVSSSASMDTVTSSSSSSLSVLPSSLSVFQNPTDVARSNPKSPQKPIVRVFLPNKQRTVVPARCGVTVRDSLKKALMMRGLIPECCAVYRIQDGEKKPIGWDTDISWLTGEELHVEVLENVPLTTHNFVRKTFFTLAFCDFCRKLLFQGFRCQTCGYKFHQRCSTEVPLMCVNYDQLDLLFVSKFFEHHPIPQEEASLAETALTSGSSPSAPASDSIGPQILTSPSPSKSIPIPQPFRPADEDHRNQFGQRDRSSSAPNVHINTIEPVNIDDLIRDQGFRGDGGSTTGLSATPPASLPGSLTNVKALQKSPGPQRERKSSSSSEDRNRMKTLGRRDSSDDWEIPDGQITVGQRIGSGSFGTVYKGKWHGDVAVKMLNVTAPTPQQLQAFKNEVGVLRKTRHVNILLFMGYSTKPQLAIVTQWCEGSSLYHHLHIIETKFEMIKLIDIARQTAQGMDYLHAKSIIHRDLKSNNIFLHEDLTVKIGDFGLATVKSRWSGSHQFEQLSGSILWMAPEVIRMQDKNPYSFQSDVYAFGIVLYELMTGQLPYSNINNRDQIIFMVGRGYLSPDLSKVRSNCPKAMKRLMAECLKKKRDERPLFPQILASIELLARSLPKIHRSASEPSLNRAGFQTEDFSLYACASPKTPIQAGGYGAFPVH

IC50 (Zap70): ≤ 10 µM | IC50 (Stk6): ≤ 10 µM
SMILES: O=S(=O)(NCc1c[nH]c2ncccc12)c1ccc(-c2cccc(CO)c2)cc1 [Compound P-0193]

IC50 (MAP4K4): ≤ 10 µM | IC50 (FGFR1): ≤ 10 µM
SMILES: Fc1ccc(Cc2c[nH]c3ncccc23)cc1 [Compound P-0220]

IC50 (Zap70): ≤ 10 µM | IC50 (Stk6): ≤ 10 µM
SMILES: Cc1[nH]c2ncccc2c1-c1cccs1 [Compound P-0249]

IC50 (MAP4K4): ≤ 10 µM
SMILES: c1ccc(Cc2c[nH]c3ncccc23)cc1 [Compound P-0256]

IC50 (B-Raf): ≤ 10 µM | IC50 (Fak): ≤ 10 µM | IC50 (Zap70): ≤ 10 µM | IC50 (Yes): ≤ 10 µM
SMILES: c1ccc(Oc2ccc(Cc3c[nH]c4ncccc34)cc2)cc1 [Compound P-0310]

IC50 (Zap70): ≤ 10 µM | IC50 (Stk6): ≤ 10 µM
SMILES: COc1ccc(F)cc1Cc1c[nH]c2ncccc12 [Compound P-0348]

IC50 (MAP4K4): ≤ 10 µM
SMILES: Cc1cc(C(=O)c2c[nH]c3ncccc23)n(C)n1 [Compound P-0357]

IC50 (MAP4K4): ≤ 10 µM | IC50 (Ret): ≤ 10 µM | IC50 (Kit): ≤ 10 µM
SMILES: O=C(c1cccc(F)c1)c1c[nH]c2ncccc12 [Compound P-0367]

IC50 (MAP4K4): ≤ 10 µM | IC50 (Kit): ≤ 10 µM
SMILES: O=C(c1ccccc1)c1c[nH]c2ncccc12 [Compound P-0402]

IC50 (MAP4K4): ≤ 10 µM
SMILES: Clc1cccc(-c2c[nH]c3ncccc23)c1 [Compound P-0449]

IC50 (MAP4K4): ≤ 10 µM | IC50 (Flt1): ≤ 10 µM
SMILES: COc1ccc(-c2c[nH]c3ncccc23)c(OC)c1 [Compound P-0477]

IC50 (MAP4K4): ≤ 10 µM
SMILES: Cc1[nH]c2ncccc2c1-c1ccccc1 [Compound P-0488]

IC50 (MAP4K4): ≤ 10 µM
SMILES: O=C(c1cccnc1)c1c[nH]c2ncccc12 [Compound P-0518]

IC50 (MAP4K4): ≤ 10 µM
SMILES: CCOc1ccccc1-c1c[nH]c2ncccc12 [Compound P-0527]

IC50 (MAP4K4): ≤ 10 µM
SMILES: Cc1[nH]c2ncccc2c1-c1ccncc1 [Compound P-0537]

IC50 (MAP4K4): ≤ 10 µM
SMILES: Cc1[nH]c2ncccc2c1-c1ccc(-c2ccccc2)cc1 [Compound P-0601]

IC50 (MAP4K4): ≤ 10 µM
SMILES: NC(=O)c1ccc(-c2c(CN3CCOCC3)[nH]c3ncccc23)cc1 [Compound P-0695]

IC50 (Fak): ≤ 10 µM | IC50 (Ret): ≤ 10 µM | IC50 (Zap70): ≤ 10 µM
SMILES: CN1CCN(Cc2ccc(C(=O)Nc3ccc(Cc4c[nH]c5ncccc45)cc3)cc2)CC1 [Compound P-0795]

IC50 (MAP4K4): ≤ 10 µM
SMILES: COc1ccc(-c2c(C)[nH]c3ncccc23)cc1OC [Compound P-0862]

IC50 (MAP4K4): ≤ 10 µM
SMILES: c1cnc2ccc(Nc3ccnc4[nH]ccc34)cc2c1 [Compound P-1042]

IC50 (MAP4K4): ≤ 10 µM | IC50 (Flt1): ≤ 10 µM | IC50 (Fms): ≤ 10 µM | IC50 (Kit): ≤ 10 µM | IC50 (FGFR1): ≤ 10 µM
SMILES: COc1cc(OC)cc(C(=O)c2c[nH]c3ncc(-c4ccccc4)cc23)c1 [Compound P-1406, (3,5-Dimethoxy-phenyl)-(5-phenyl-1H-pyrrolo[2.3 b]pyridin-3-yl)-methanone]

IC50 (MAP4K4): ≤ 10 µM | IC50 (Kit): ≤ 10 µM | IC50 (B-Raf V600E): ≤ 10 µM
SMILES: O=C(c1cc(Cl)cc(Cl)c1)c1c[nH]c2ncc(-c3cccnc3)cc12 [Compound P-1414, (3,5-Dichloro-phenyl)-(5-pyridin-3-yl-1H-pyrrolo[2,3-b]pyridin-3-yl)-methanone]

IC50 (MAP4K4): ≤ 10 µM | IC50 (Flt1): ≤ 10 µM | IC50 (B-Raf V600E): ≤ 10 µM | IC50 (FGFR1): ≤ 10 µM
SMILES: O=C(O)/C=C/c1cccc(-c2cnc3[nH]cc(C(=O)c4cccc(OC(F)F)c4)c3c2)c1 [Compound P-1418, (E)-3-{3-[3-(3-Difluoromethoxy-benzoyl)-1H-pyrrolo[2,3-b]pyridin-5-yl]-phenyl}-acrylic acid]
